{"source": "patent US9623083B2", "about": "“Method to screen for an activator of adipose-resident NK cells” (Cornell University, priority 2011, dated 2017)", "key": {"[1]": {"tested_on": "adipose-resident NKT cells", "assay": "In vivo effectiveness as activator of adipose-resident NKT cells"}, "[2]": {"tested_on": "M2 genes in adipose tissue", "assay": "Q-PCR analysis of M1 and M2 genes in white adipose tissue", "format": "in vivo, mice", "experimental": "RNA extraction from cells and murine tissues, and Q-PCR were carried out as previously described (36) using Trizol (Invitrogen) for liver, and Trizol plus QIAeasy kit (Qiagen) for adipose tissues with DNase digestion (Roche). Q-PCR data collected on the Roche LightCycler 480 were normalized to ribosomal 132 gene in the corresponding sample.\n(§1) Accordingly, 6 w-old male mice were fed with either 13% LFD or 60% HFD for indicated period of time from 4 d to 24 w as described in Example 1. αGalCer (Toronto Research Chemicals) was dissolved in pyridine at 2.5 mg/ml and then diluted 1:250 in PBS to prepare 10 μg/ml working solution prior to use. In all experiments, mice were injected i.p. with 200 μl αGalCer (100 ng αGalCer per g body weight). The vehicle control group was injected with PBS with 0.4% pyridine. The dosage and frequency of αGalCer injection were the same for all the gain-of-function experiments unless otherwise indicated. HFD mice were injected with αGalCer or vehicle at day 0 and day 2. GTT was conducted on day 4, followed by sacrificing the mice on (day 5) to harvest adipose tissues (or other tissues as indicated), which were processed for immune cell analysis, frozen for Q-PCR or Western blot, or fixed for H&E staining Flow cytometric analyses of NKT levels and other immune cells were performed on day 5."}, "[3]": {"tested_on": "cells surrounding adipocytes", "assay": "H&E histology of adipose tissue", "format": "in vivo, mice", "settings": "WT, 4 d HFD, FIG. 3D; abolished by CD1d deficiency", "experimental": "Adipose tissues were fixed in 4% formaldehyde, embedded in paraffin and sectioned by the Cornell Histology Core Facility. Pictures were taken using the Axiovert 200M microscope (Zeiss).\nas §1"}, "[4]": {"assay": "Body and epididymal fat weights", "format": "in vivo", "settings": "HFD mice, FIG. 4B", "experimental": "as §1"}, "[5]": {"settings": "literature (Berzins 2011; Giaccone 2002); cited from earlier work"}, "[6]": {"settings": "one injection of αGalCer, Ohmura et al. (2010); cited from earlier work"}, "[7]": {"assay": "Glucose tolerance test (GTT) after αGalCer injection", "format": "in vivo, mice", "experimental": "as §1\n(§2) For GTT, mice were fasted for 16-18 h followed by injection of glucose (Sigma) at 1 g/kg body weight. Blood glucose was monitored using One-Touch Ultra Glucometer. Fasting insulin levels were measured following a 6 h fast."}, "[8]": {"tested_on": "gene expression in WAT", "assay": "Microarray analysis of WAT", "format": "in vivo, mice", "settings": "4 d HFD", "experimental": "Microarray analyses of WAT were performed as described (39) with four groups of mice (n=3-4 per cohort) as follows: WT+veh, WT+αGalCer, CD1d^−/−+veh and CD1d^−/−+αGalCer. All mice were on 4 d HFD feeding with two αGalCer injections at day 0 and day 2. […] Data have been deposited into the GEO datasets (GSE36032). The array data of IL-4-treated mouse BMDM for 10 days were obtained from the Gene Expression Omnibus (GEO) database with accession number GSE25088 (Szanto A. et al. (2010))."}, "[9]": {"assay": "Fasting insulin levels (ELISA)", "format": "in vivo", "settings": "8 w HFD mice, FIG. 6D", "experimental": "Blood was collected in animals upon 6 h fasting during the day. Circulating insulin levels were measured using the kit from Millipore per supplier's protocols.\nas §2"}, "[10]": {"tested_on": "NKT cells in adipose tissue", "assay": "Flow cytometric analysis of immune cells in adipose tissue after αGalCer challenge", "format": "in vivo, mice", "experimental": "Single-cell suspensions of stromal vascular cells (SVC) from adipose tissue were prepared as described (Xia et al. (2011)). SVCs from two fat pads per mouse were diluted in 120-200 μl PBS, from which one tenth was used for the subsequent staining Following incubation with anti-CD16/CD32 antibody to block Fc receptors, 1×10^6 cells were incubated with 20 μl of antibodies diluted at optimal concentrations for 20 min at 4° C. Cells were washed three times with PBS and then resuspended in 200 μl PBS for analysis using the FACSCalibur Flow Cytometer (BD Biosciences). NKT cells were defined as CD45^+αGalCer-loaded CD1d-tetramer^+CD3/TCRβ^+ lymphocytes; CD8^+ T cells were defined as CD8^+CD45^+ cells; macrophages were as CD45^+F4/80^+CD11b^+ cells. During the run, samples were completely run out and the total number of CD45^+ lymphocytes or immune cells were gated and counted. The total cell number for various immune cells per g adipose tissue was calculated as (% cells in total CD45^+ lymphocytes or immune cells×total CD45^+ lymphocytes or immune cells)/g adipose tissue.\nFor the Brdu staining, mice were injected (i.p.) with αGalCer (100 ng per g body weight) at day 0, and then with BrdU (Sigma, 0.6 mg/10 g body weight) at 36 h and 12 h prior to sacrifice at day 3. SVC of adipose tissues were purified, labeled with cell surface antibodies and then fixed in cold 70% ethanol at −20° C. overnight. The rest of steps were performed as the regular flow cytometric analysis using BrdU-FITC antibody and DNA dye 7-AAD (Anaspec).\nas §1"}, "[11]": {"tested_on": "Arg1 protein, p-Y STAT6", "assay": "Western blot of Arg1 and p-Y STAT6 in WAT and liver", "format": "in vivo, mice", "experimental": "Tissues or cells were lysed in Tris-based lysis buffer containing 1% Triton X-100. Normally, 15-30 μg of total lysates unless otherwise indicated were used in a mini SDS-PAGE as described (Sha et al. (2009) Cell Metab 9, 556-564). Antibodies specific for (p-Tyr641) STATE and (p-Tyr705) STAT3 (Cell signaling) and Arginase 1 (N-20, Santa Cruz sc-18351) were used at 1:500-2000 and for the loading control HSP90 (Santa Cruz) was used at 1:6000. The secondary antibody goat anti-rabbit IgG HRP (1:10,000) was from Bio-Rad. Quantitation of band density was carried out using the ImageLab software of the Bio-Rad ChemiDoc XRS+system following exposure.\nas §1"}}}
{"compound": "CCCCCCCCCCCCCCCCCCCCCCCC(=O)NC(COC1O[C@H](CO)[C@H](O)[C@H](O)[C@H]1O)C(O)C(O)CCCCCC", "note": "(stereo partly shown) [OCH, tetracosanoic acid 1-galactopyranosyloxy-3,4-dihydroxydec-2-yl amide]", "values": [{"measurement": "effectiveness in vivo", "setting": "[1]", "value": "not effective in vivo"}]}
{"compound": "CCCCCCCCCCCCCCCCCCCCCCCCCC(=O)N[C@@H](CO[C@H]1O[C@H](CO)[C@H](O)[C@H](O)[C@H]1O)[C@H](O)[C@H](O)CCCCCCCCCCCCCC", "note": "[αGalCer, (2S,3S,4R)-1-O-(alpha-D-galactosyl)-N-hexacosanoyl-2-amino-1,3,4-octadecanetriol]", "values": [{"measurement": "Il4 mRNA levels in WAT", "setting": "[2]; 4 d HFD, NKT-dependent, FIG. 9F", "value": "highly induced"}, {"measurement": "αGalCer-mediated induction of M2 genes in WAT of myeloid cell-specific PPARγ or PPARβ/δ-deficient animals", "setting": "[2]; 4 day HFD, vs WT control littermates, FIG. 12C", "value": "not affected"}, {"measurement": "αGalCer-mediated induction of M2 genes Arg1, Chi3l3, Pdcd1Ig2 and Arg1 protein in WAT with loss of IL-4", "setting": "[2]; IL-4-/- mice, 4 d HFD, FIG. 11D-F", "value": "markedly attenuated"}, {"measurement": "induction of a subset of M2 genes (Arg1, Chi313, Pdcd1Ig2) in adipose tissue", "setting": "[2]; all three HFD models, NKT-dependent, FIGS. 7A-B and 8A", "value": "50-100 fold"}, {"measurement": "number of cells surrounding adipocytes in WAT sections", "setting": "[3]", "value": "significant increase"}, {"measurement": "effect on body and epididymal fat weights", "setting": "[4]", "value": "no discernible effect"}, {"measurement": "tolerability in humans", "setting": "[5]", "value": "well tolerated"}, {"measurement": "toxicity", "setting": "[5]", "value": "not toxic"}, {"measurement": "effect on glucose tolerance in HFD animals", "setting": "[6]", "value": "mild effect"}, {"measurement": "effect on glucose tolerance in CD1d-/- mice", "setting": "[7]; CD1d-/- mice, 4 d HFD, FIG. 6E", "value": "no effect"}, {"measurement": "αGalCer effect in glucose tolerance in IL-4-/- mice", "setting": "[7]; IL-4-/- mice, 4 d HFD, FIG. 11B-C", "value": "completely abolished"}, {"measurement": "systemic glucose tolerance", "setting": "[7]; WT mice at all stages of HFD (4 d, 8 w, 24 w), FIGS. 6A-C", "value": "improved systemic glucose tolerance"}, {"measurement": "effect on glucose tolerance in mice on LFD", "setting": "[7]; WT mice on LFD, FIG. 6F", "value": "no effect on glucose tolerance"}, {"measurement": "number of genes whose expression was significantly increased by more than 2-fold in WAT", "setting": "[8]; WT vs CD1d-/-, NKT-dependent, FIG. 9A", "value": "1,556 genes"}, {"measurement": "Arg1 expression, αGalCer vs. veh in WT WAT", "setting": "[8]; microarray, FIG. 9B", "value": 32, "unit": "fold"}, {"measurement": "Chi313 expression, αGalCer vs. veh in WT WAT", "setting": "[8]; microarray, FIG. 9B", "value": 138, "unit": "fold"}, {"measurement": "pdcd1Ig2 expression, αGalCer vs. veh in WT WAT", "setting": "[8]; microarray, FIG. 9B", "value": 53, "unit": "fold"}, {"measurement": "effect on fasting insulin levels", "setting": "[9]", "value": "no effect"}, {"measurement": "macrophages and CD8+ T cells in adipose tissue", "setting": "[10]; 4 d HFD mice, FIG. 5A", "value": "milder increases"}, {"measurement": "increase in percentage of NKT cells in adipose tissue", "setting": "[10]; 4 d HFD mice, αGalCer 100 ng per g body weight i.p. day 0 and day 2, FIG. 3C", "value": "> 4", "unit": "fold"}, {"measurement": "increase in total cell number of NKT cells in adipose tissue", "setting": "[10]; 4 d HFD mice, αGalCer i.p. day 0 and day 2, FIG. 5A", "value": 70, "unit": "fold"}, {"measurement": "reduction of total lymphocytes in WAT of IL-4-/- mice relative to WT cohorts after αGalCer", "setting": "[10]; 4 d HFD, FIG. 12B", "value": "approximately 40%"}, {"measurement": "Arg1 protein in CD1d-/- WAT", "setting": "[11]; CD1d-/- mice, FIG. 7C-D", "value": "abolished"}, {"measurement": "tyrosine phosphorylation (p-Y) of STAT6 in WAT following αGalCer with loss of IL-4", "setting": "[11]; IL-4-/- mice, 4 d HFD, FIG. 11E-F", "value": "completely abolished"}, {"measurement": "Arg1 protein in WT WAT", "setting": "[11]; WT mice, HFD, FIG. 7C-D", "value": "significantly induced"}, {"measurement": "hepatic STAT6 activation", "setting": "[11]; liver of WT mice, 4 d HFD, FIG. 11G", "value": "not activated"}, {"measurement": "Arg1 protein induction in the liver", "setting": "[11]; liver, 4 d or 8 w HFD, FIG. 8B", "value": "not observed in the liver"}]}
